# Data taken from patent publication US20260216347A1, “Substituted Imidazo-Based Compounds as Ligand Directed Degraders of IRAK3” (Celgene Corporation, priority 2022, published 2026).
# Target: T1, IRAK3 (Homo sapiens, UniProt Q9Y616)
# T1 construct: IRAK Endogenous HTRF Degradation Assay; endogenous in cells
# T1 sequence (Q9Y616 1-596): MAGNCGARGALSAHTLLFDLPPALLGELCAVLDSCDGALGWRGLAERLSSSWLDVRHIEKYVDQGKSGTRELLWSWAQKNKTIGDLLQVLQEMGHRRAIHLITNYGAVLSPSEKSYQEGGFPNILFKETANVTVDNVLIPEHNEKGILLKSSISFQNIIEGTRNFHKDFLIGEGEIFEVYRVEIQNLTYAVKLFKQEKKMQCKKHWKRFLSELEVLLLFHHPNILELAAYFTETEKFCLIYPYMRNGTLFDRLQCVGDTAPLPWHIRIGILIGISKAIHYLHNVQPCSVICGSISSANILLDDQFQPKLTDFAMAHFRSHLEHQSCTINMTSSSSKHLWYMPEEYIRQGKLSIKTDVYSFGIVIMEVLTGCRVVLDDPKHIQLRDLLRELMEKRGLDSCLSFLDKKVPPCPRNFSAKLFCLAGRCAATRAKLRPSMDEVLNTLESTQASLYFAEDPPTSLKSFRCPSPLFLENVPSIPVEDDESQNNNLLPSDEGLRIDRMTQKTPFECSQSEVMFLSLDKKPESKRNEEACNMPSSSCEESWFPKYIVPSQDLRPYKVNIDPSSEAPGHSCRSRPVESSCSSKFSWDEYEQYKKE
# Assay: IRAK3 biochemical binding assay (LanthaScreen Eu Kinase Binding, TR-FRET)
# Procedure: Example B3. IRAK3 Biochemical Binding Assay
# The LanthaScreen® Eu Kinase Binding assay was performed as described by the vendor (ThermoFisher Scientific Waltham, MA). Briefly, 100× solutions of compound were prepared in DMSO via serial dilution of the 10 mM stock solution in a 384-well reagent plate using 3-fold intervals to achieve final concentrations. 1 μL of the compound dilution series were added to the corresponding wells of a 384-well reagent plate containing 32.3 μL of 1× buffer (50 mM HEPES pH 7.4, […], 1 mM EGTA, 0.01% Brij-35). 5 μL of the buffer diluted compounds were transferred to the corresponding wells of a 384-well assay plate. 5 μL of 3× tracer was transferred to each well of the assay plate for a final tracer concentration of 10 nM. Finally, 5 μL of the 3×Eu-Anti-GST and IRAK3 mix was transferred to each well for a final concentration of 2 nM and 10 nM respectively. Reactions were allowed to incubate for 1 hour at room temperature. TR-FRET signal of the interaction (λex340/λem 665/λem 615) was read at room temperature with a delay time of 100 ρs and an integration time of 200 ρs using an Envision plate reader. Background corrected emission signal ratios at each compound concentration were used to calculate percentage of inhibition (% Inhibition). Plots of % Inhibition versus inhibitor concentrations were fit according to a dose-response equation (Eq. 1) to generate IC50 and Hill slope values using Dotmatics software (Dotmatics, Bishops Stortford, Hertfordshire, England).
# Using these assays, IC50, Dmax, EC50, and DC50 values of the following compounds were determined. Dmax is defined as the maximum percent degradation achieved and DC50 is the concentration at which 50% degradation is achieved.
row,IC50 [nM],Compound
1,380,"CS(=O)(=O)c1cccc(-c2cnc(Nc3cnn(C4CCN(CCN5CCN(c6ccc(C7CCC(=O)NC7=O)cc6)CC5)CC4)c3)c3nccn23)c1 (stereo not drawn) [Compound 86, 3-(4-(4-(2-(4-(4-((5-(3-(methylsulfonyl)phenyl)imidazo[1,2-a]pyrazin-8-yl)amino)-1H-pyrazol-1-yl)piperidin-1-yl)ethyl)piperazin-1-yl)phenyl) piperidine-2,6-dione]"
2,4,"COc1ccc(-c2cnc(Nc3cnn(C4CCN(CCN5CCN(c6ccc(C7CCC(=O)NC7=O)cc6)CC5)CC4)c3)c3nccn23)cc1 (stereo not drawn) [Compound 87, 3-(4-(4-(2-(4-(4-((5-(4-methoxyphenyl)imidazo[1,2-a]pyrazin-8-yl)amino)-1H-pyrazol-1-yl)piperidin-1-yl)ethyl)piperazin-1-yl)phenyl) piperidine-2,6-dione]"
3,16,"O=C1CCC(c2ccc(N3CCN(CCN4CCC(n5cc(Nc6ncc(-c7ccccc7)n7ccnc67)cn5)CC4)CC3)cc2)C(=O)N1 (stereo not drawn) [Compound 88, 3-(4-(4-(2-(4-(4-((5-phenylimidazo[1,2-a]pyrazin-8-yl)amino)-1H-pyrazol-1-yl)piperidin-1-yl)ethyl)piperazin-1-yl)phenyl) piperidine-2,6-dione]"
4,15,"Cc1cc(-c2cnc(Nc3cnn([C@H]4CC[C@H](CCN5CCC(c6ccc(C7CCC(=O)NC7=O)cc6)CC5)CC4)c3)c3nccn23)c(F)cc1F (stereo partly drawn) [Compound 95, 3-(4-(1-(2-((trans)-4-(4-((5-(2,4-difluoro-5-methylphenyl)imidazo[1,2-a]pyrazin-8-yl)amino)-1H-pyrazol-1-yl)cyclohexyl)ethyl)piperidin-4-yl)phenyl) piperidine-2,6-dione]"
5,1.3,"Cc1cc(-c2cnc(Nc3cnn(C4CCN(CCN5CC6(C5)CN(c5ccc(C7CCC(=O)NC7=O)cc5)C6)CC4)c3)c3nccn23)c(F)cc1F (stereo not drawn) [Compound 97, 3-(4-(6-(2-(4-(4-((5-(2,4-difluoro-5-methylphenyl)imdazo [1,2-a]pyrazin-8-yl)amino)-1H-pyrazol-1-yl)piperidin-1-yl)ethyl)-2,6-diazaspiro[3.3]heptan-2-yl)phenyl) piperidine-2,6-dione]"
6,0.08,"CN1CCOc2cc(F)c(-c3cnc(Nc4cnn(C5CCN(CCN6CCN(c7ccc(C8CCC(=O)NC8=O)cc7)CC6)CC5)c4)c4nccn34)cc21 (stereo not drawn) [Compound 98, 3-(4-(4-(2-(4-(4-((5-(7-fluoro-4-methyl-3,4-dihydro-2H-benzo[b][1,4]oxazin-6-yl)imidazo[1,2-a]pyrazin-8-yl)amino)-1H-pyrazol-1-yl)piperidin-1-yl)ethyl)piperazin-1-yl)phenyl) piperidine-2,6-dione]"
7,0.44,Cc1cc(-c2cnc(Nc3cnn([C@H]4C[C@H](CN5CCN(c6ccc(C7CCC(=O)NC7=O)cc6)CC5)C4)c3)c3nccn23)c(F)cc1F (stereo partly drawn) [Compound 99]
8,4,O=C1CCC(c2ccc(N3CCN(CC[C@H]4CC[C@H](n5cc(Nc6ncc(C78CCCC7C8)n7ccnc67)cn5)CC4)CC3)cc2)C(=O)N1 (stereo partly drawn) [Compound 100]
9,7.6,Cc1cc(-c2cnc(Nc3cnn([C@H]4CC[C@@H](CCN5CC6(C5)CN(c5ccc(C7CCC(=O)NC7=O)cc5)C6)CC4)c3)c3nccn23)c(F)cc1F (stereo partly drawn) [Compound 101]
10,0.8,"Cc1cc(-c2cnc(Nc3cnn(C4CCN(CCN5CCN(c6ccc(-n7ccc(=O)[nH]c7=O)cc6)CC5)CC4)c3)c3nccn23)c(F)cc1F [Compound 102, 1-(4-(4-(2-(4-(4-((5-(2,4-difluoro-5-methylphenyl)imdazo [1,2-a]pyrazin-8-yl)amino)-1H-pyrazol-1-yl)piperidin-1-yl)ethyl)piperazin-1-yl)phenyl)pyrimidine-2,4(1H,3H)-dione]"
11,2,Cc1cc(-c2ccc(Nc3cnn([C@H]4CC[C@@H](CCN5CCN(c6ccc(C7CCC(=O)NC7=O)cc6)CC5)CC4)c3)c3nccn23)c(F)cc1F (stereo partly drawn) [Compound 103]
12,0.3,Cc1cc(-c2cnc(Nc3cnn([C@H]4CC[C@H](CCN5CC6(C5)CN(c5ccc(C7CCC(=O)NC7=O)cc5)C6)CC4)c3)c3nccn23)c(F)cc1F (stereo partly drawn) [Compound 104]
13,0.18,"Cc1cc(-c2cnc(Nc3cnn([C@H]4CC[C@H](CCN5CCN(c6ccc7c(C8CCC(=O)NC8=O)nn(C)c7c6)CC5)CC4)c3)c3nccn23)c(F)cc1F (stereo partly drawn) [Compound 105, 3-(6-(4-(2-((trans)-4-(4-((5-(2,4-difluoro-5-methylphenyl)imidazo[1,2-a]pyrazin-8-yl)amino)-1H-pyrazol-1-yl)cyclohexyl)ethyl)piperazin-1-yl)-1-methyl-1H-indazol-3-yl)piperidine-2,6-dione]"
14,2.6,Cc1cc(-c2ccc(Nc3cnn([C@H]4CC[C@H](CCN5CCN(c6ccc(C7CCC(=O)NC7=O)cc6)CC5)CC4)c3)c3nccn23)c(F)cc1F (stereo partly drawn) [Compound 108]
15,0.26,"Cc1cc(-c2cnc(Nc3cnn(C4CCN(CCN5CCC(n6cc(C7CCC(=O)NC7=O)cn6)CC5)CC4)c3)c3nccn23)c(F)cc1F (stereo not drawn) [Compound 109, 3-(1-(1-(2-(4-(4-((5-(2,4-difluoro-5-methylphenyl)imdazo [1,2-a]pyrazin-8-yl)amino)-1H-pyrazol-1-yl)piperidin-1-yl)ethyl)piperidin-4-yl)-1H-pyrazol-4-yl)piperidine-2,6-dione]"
16,0.86,"Cc1cc(-c2cnc(Nc3cnn(C4CCN(CCN5CCN(c6ccc(-n7cc(F)c(=O)[nH]c7=O)cc6)CC5)CC4)c3)c3nccn23)c(F)cc1F [Compound 110, 1-(4-(4-(2-(4-(4-((5-(2,4-difluoro-5-methylphenyl)imdazo [1,2-a]pyrazin-8-yl)amino)-1H-pyrazol-1-yl)piperidin-1-yl)ethyl)piperazin-1-yl)phenyl)-5-fluoropyrimidine-2,4(1H,3H)-dione]"
17,3.2,"Cn1nc(C2CCC(=O)NC2=O)c2cccc(N3CCN(CCN4CCC(n5cc(Nc6ncc(C7CC7)n7ccnc67)cn5)CC4)CC3)c21 (stereo not drawn) [Compound 113, 3-(7-(4-(2-(4-(4-((5-cyclopropylimidazo[1,2-a]pyrazin-8-yl)amino)-1H-pyrazol-1-yl)piperidin-1-yl)ethyl)piperazin-1-yl)-1-methyl-1H-indazol-3-yl)piperidine-2,6-dione]"
18,0.92,"O=C1CCC(c2ccc(N3CCN(CCN4CCC(n5cc(Nc6ncc(-c7cnn8c7CCCC8)n7ccnc67)cn5)CC4)CC3)cc2)C(=O)N1 (stereo not drawn) [Compound 114, 3-(4-(4-(2-(4-(4-((5-(4,5,6,7-tetrahydropyrazolo[1,5-a]pyridin-3-yl)imidazo[1,2-a]pyrazin-8-y1)amino)-1H-pyrazol-1-yl)piperidin-1-yl)ethyl)piperazin-1-y1)phenyl)piperidine-2,6-dione]"
19,25,"Cn1nc(C2CCC(=O)NC2=O)c2ccc(N3CCN(CCN4CCC(n5cc(Nc6ncc(C7CC7)n7ccnc67)cn5)CC4)CC3)cc21 (stereo not drawn) [Compound 115, 3-(6-(4-(2-(4-(4-((5-cyclopropylimidazo[1,2-a]pyrazin-8-yl)amino)-1H-pyrazol-1-yl)piperidin-1-yl)ethyl)piperazin-1-yl)-1-methyl-1H-indazol-3-yl)piperidine-2,6-dione]"
20,0.12,"Cc1cc(-c2cnc(Nc3cnn(C4CCN(CCN5CCC(n6cc(N7CCC(=O)NC7=O)cn6)CC5)CC4)c3)c3nccn23)c(F)cc1F [Compound 116, 1-(1-(1-(2-(4-(4-((5-(2,4-difluoro-5-methylphenyl)imdazo [1,2-a]pyrazin-8-yl)amino)-1H-pyrazol-1-yl)piperidin-1-yl)ethyl)piperidin-4-yl)-1H-pyrazol-4-yl) dihydropyrimidine-2,4(1H,3H)-dione]"

row,Compound,IC50 [nM]
1,"Cc1cc(-c2cnc(Nc3cnn([C@H]4C[C@@H](CCN5CCN(c6ccc(C7CCC(=O)NC7=O)cc6)CC5)C4)c3)c3nccn23)c(F)cc1F (stereo partly drawn) [Compound 96, 3-(4-(4-(2-((cis)-3-(4-((5-(2,4-difluoro-5-methylphenyl)imidazo[1,2-a]pyrazin-8-yl)amino)-1H-pyrazol-1-yl)cyclobutyl)ethyl)piperazin-1-yl)phenyl)piperidine-2,6-dione]",0.22
